Measurements: ChEMBL document CHEMBL1201862, “PubChem BioAssay data set” (2004)
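Assay format: 96-well plates, 48-hour exposure. GI50 is the concentration that inhibits growth by half.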 The source made the active and inactive calls. No stated cut-off is given here; in the data, active = GI50 up to about 1.1 µM and inactive = higher.

Experiments:
Assay in all cases: DTP human tumour cell line panel, 48 h
786-0 = test system: 786-0
ACHN = test system: ACHN
EKVX = test system: EKVX
HCT-116 = test system: HCT-116
HOP-62 = test system: HOP-62
KM12 = test system: KM12
MDA-MB-435 = test system: MDA-MB-435
MDA-N = test system: MDA-N
Malme-3M = test system: Malme-3M
NCI-H226 = test system: NCI-H226
NCI-H522 = test system: NCI-H522
NCI/ADR-RES = test system: NCI/ADR-RES
OVCAR-3 = test system: OVCAR-3
SK-OV-3 = test system: SK-OV-3
SN12C = test system: SN12C
SNB-75 = test system: SNB-75
T47D = test system: T47D
UACC-257 = test system: UACC-257
UO-31 = test system: UO-31
SR = test system: SR

Measured: GI50

CCOc1ccc2nc3nc(O)nc(C)c3c(NC(C)(CO)CO)c2c1
inactive: 786-0 > 100 µM | ACHN > 100 µM | EKVX > 100 µM | HCT-116 > 100 µM | HOP-62 > 100 µM | KM12 > 100 µM | MDA-MB-435 > 100 µM | MDA-N > 100 µM | Malme-3M > 100 µM | NCI-H226 > 100 µM | NCI-H522 > 100 µM | NCI/ADR-RES > 100 µM | OVCAR-3 > 100 µM | SK-OV-3 > 100 µM | SN12C > 100 µM | SNB-75 > 100 µM | T47D > 100 µM | UACC-257 > 100 µM | UO-31 > 100 µM

OC1(c2ccc(Cl)cc2)C(N2CCCC2)c2ccccc2C2=NCCN21 (stereo not given)
inactive: 786-0 35.1 µM | ACHN 30.3 µM | EKVX 26 µM | HCT-116 10.9 µM | HOP-62 31.8 µM | KM12 20.1 µM | MDA-MB-435 25.6 µM | MDA-N 17.8 µM | Malme-3M 18.5 µM | NCI/ADR-RES 18.6 µM | OVCAR-3 37.2 µM | SK-OV-3 20.9 µM | SN12C 30.7 µM | SR 15.1 µM | T47D 17.7 µM | UACC-257 20.1 µM | UO-31 33 µM

O=C(NCCC1([N+](=O)[O-])CCN(C(=O)c2ccccc2)CC1)c1ccccc1
inactive: 786-0 > 100 µM | ACHN > 100 µM | EKVX > 100 µM | HCT-116 > 100 µM | KM12 > 100 µM | MDA-MB-435 26.7 µM | MDA-N 47.1 µM | Malme-3M 56.5 µM | NCI-H226 > 100 µM | NCI-H522 > 100 µM | NCI/ADR-RES > 100 µM | SK-OV-3 > 100 µM | SN12C > 100 µM | SR > 100 µM | T47D > 100 µM | UACC-257 24.7 µM | UO-31 55.2 µM

C=C[C@@]1(C)CC(=O)[C@]2(O)[C@@]3(C)[C@@H](OC(C)=O)CCC(C)(C)[C@@H]3[C@H](OC(C)=O)[C@H](OC(C)=O)[C@@]2(C)O1
inactive: 786-0 > 100 µM | ACHN > 100 µM | EKVX > 100 µM | HCT-116 > 100 µM | HOP-62 > 100 µM | KM12 36.1 µM | MDA-MB-435 > 100 µM | MDA-N > 100 µM | NCI-H226 > 100 µM | NCI/ADR-RES > 100 µM | OVCAR-3 > 100 µM | SK-OV-3 > 100 µM | SN12C > 100 µM | SNB-75 > 100 µM | SR > 100 µM | T47D > 100 µM | UACC-257 > 100 µM | UO-31 > 100 µM

CC1CCCc2c(-c3ccc(Cl)cc3)nc(N)c(C#N)c21 (stereo not given)
inactive: 786-0 42.1 µM | ACHN 38.5 µM | EKVX 18.5 µM | HCT-116 22.3 µM | HOP-62 19.2 µM | KM12 20.2 µM | MDA-MB-435 30.1 µM | MDA-N 24 µM | Malme-3M 24.4 µM | NCI-H226 18.4 µM | NCI/ADR-RES 23.2 µM | OVCAR-3 29.5 µM | SK-OV-3 23.9 µM | SN12C 41.4 µM | SNB-75 11.7 µM | SR 9.84 µM | T47D 2.09 µM | UACC-257 27.7 µM | UO-31 21.6 µM

O=[N+]([O-])c1ccccc1S(=O)(=O)N1CCCc2cc(Cl)ccc21
inactive: 786-0 > 85.1 µM | ACHN > 51.6 µM | EKVX 77.4 µM | HCT-116 16.2 µM | HOP-62 60.3 µM | KM12 18.5 µM | MDA-MB-435 4.46 µM | MDA-N 4.46 µM | Malme-3M > 100 µM | NCI-H226 > 100 µM | NCI/ADR-RES 18 µM | OVCAR-3 26.2 µM | SK-OV-3 26.9 µM | SN12C 82.4 µM | SNB-75 4.59 µM | SR 5.75 µM | T47D 15.3 µM | UACC-257 12.6 µM | UO-31 30.6 µM

CC[C@H](C)C1=C(O)[N@+]2([O-])Oc3ccc(-c4c(O)c(O)c(-c5ccc(O)cc5)c(OC(C)=O)c4OC(C)=O)cc3O[C@]2([C@@H](C)CC)C(=O)N1O
inactive: 786-0 47.2 µM | ACHN 22.5 µM | EKVX > 50 µM | HCT-116 10.1 µM | HOP-62 30.1 µM | KM12 33.7 µM | MDA-MB-435 28.1 µM | MDA-N 29.2 µM | Malme-3M 21.3 µM | NCI-H522 7.85 µM | NCI/ADR-RES 16.5 µM | OVCAR-3 19.8 µM | SK-OV-3 15.9 µM | SN12C 19.3 µM | SR 23.5 µM | T47D > 50 µM | UACC-257 > 50 µM | UO-31 33.8 µM

CC(=O)OC1OC(c2ccoc2)C[C@@]12C1CCC3O[C@]3(C)[C@]1(C)C[C@H](OC(C)=O)[C@H]2C (stereo not given in full)
inactive: 786-0 > 75 µM | ACHN > 75 µM | EKVX > 75 µM | HCT-116 > 75 µM | KM12 > 75 µM | MDA-MB-435 > 75 µM | MDA-N > 75 µM | NCI-H226 > 75 µM | NCI-H522 > 75 µM | NCI/ADR-RES > 75 µM | OVCAR-3 > 75 µM | SK-OV-3 > 75 µM | SN12C > 75 µM | SNB-75 > 75 µM | SR > 75 µM | T47D 35.2 µM | UACC-257 > 75 µM | UO-31 70.8 µM

Cc1ccc(/N=N/c2c(O)c3ccccc3[nH]c2=O)c(S(=O)(=O)N(C)C)c1
inactive: 786-0 > 100 µM | ACHN > 100 µM | EKVX > 100 µM | HCT-116 > 100 µM | HOP-62 > 100 µM | KM12 > 100 µM | MDA-MB-435 > 100 µM | MDA-N > 100 µM | Malme-3M > 100 µM | NCI-H226 > 100 µM | NCI-H522 > 100 µM | NCI/ADR-RES > 100 µM | OVCAR-3 > 100 µM | SK-OV-3 > 100 µM | SN12C > 100 µM | SNB-75 > 100 µM | T47D > 100 µM | UACC-257 > 100 µM | UO-31 > 100 µM

CC(=O)OC1COC(Nc2nc(NCc3ccccc3)n(C)c(=O)c2N=O)C(OC(C)=O)C1OC(C)=O (stereo not given)
inactive: 786-0 > 10 µM | ACHN > 10 µM | EKVX > 10 µM | HCT-116 > 10 µM | HOP-62 > 10 µM | KM12 > 10 µM | MDA-MB-435 > 10 µM | MDA-N > 10 µM | Malme-3M > 10 µM | NCI-H226 > 10 µM | NCI-H522 > 10 µM | NCI/ADR-RES > 10 µM | OVCAR-3 > 10 µM | SK-OV-3 > 10 µM | SN12C > 10 µM | SNB-75 > 10 µM | T47D > 10 µM | UACC-257 > 10 µM

Cc1c(C)c2c(c(N)c1C#N)C(=O)N(OS(=O)(=O)c1ccccc1)C2=O
inactive: 786-0 16.4 µM | ACHN 18.5 µM | EKVX 18.9 µM | HCT-116 4.42 µM | KM12 64.9 µM | MDA-MB-435 19 µM | MDA-N 29.8 µM | Malme-3M 16.1 µM | NCI-H226 18.5 µM | NCI-H522 17.1 µM | NCI/ADR-RES 22.6 µM | OVCAR-3 22.2 µM | SN12C 23.7 µM | SNB-75 32.5 µM | SR 27 µM | T47D 2.55 µM | UACC-257 24.4 µM | UO-31 33.7 µM
